In patent US10301272B2, “Carboxamide or sulfonamide substituted thiazoles and related derivatives as modulators for the orphan nuclear receptor ROR[γ]” (Phenex Pharmaceuticals AG, priority 2012, dated 2019):
Where two headings read alike, the source gives them in different places.

Assays:
RORγ = RORγ (Homo sapiens, UniProt P51449); assay: RORγ Gal4 Reporter Gene Assay; assay type: cell-based
Outline: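 Cells at 5×10^5/well were transfected with RORγ fragments fused to the GAL4 DNA-binding domain (CMV promoter), a 5×GAL4-site firefly luciferase reporter and CMV-Renilla luciferase for normalization. About 4 h later serum-free MEM and compound were added (vehicle ≤0.1%). Cultures at 37 °C, 5% CO2; at least triplicates.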

[1] = molecular target: RORγ ligand binding domain (LBD) (Homo sapiens (Human), UniProt P51449); assay: TR-FRET Activity Assay (ligand sensing assay, LANCE); conditions: for pIC50 (FRET): TR-FRET, interaction of RORγ-LBD with coactivator peptide
Excerpt: The ligand-binding domain (LBD) of RORγ was expressed as fusion protein with GST in BL-21 (BL3) cells using the vector pDEST15. Cells were lysed by lysozyme-treatment and sonication, and the fusion proteins purified over glutathione sepharose (Pharmacia) according to the manufacturers instructions. For screening of compounds for their influence on the RORγ-peptide interaction, the LANCE technology (Perkin Elmer) was applied. This method relies on the binding dependent energy transfer from a donor to an acceptor fluorophor attached to the binding partner of interest. For ease of handling and reduction of background from compound fluorescence LANCE technology makes use of generic fluorophore labels and time resolved detection assays were done in a final volume of 25 μL in a 384 well plate, in a Tris-based buffer system (20 mM Tris-HCl pH 6.8; 60 mM KCl, 1 mM DTT; 5 mM MgCl2; 35 ng/μL BSA), containing 20-60 ng/well recombinantly expressed RORγ-LBD fused to GST, 200-600 nM N-terminally biotinylated peptide, 200 ng/well Streptavidin-xlAPC conjugate (Prozyme) and 6-10 ng/well Eu W1024-antiGST (Perkin Elmer). DMSO content of the samples was kept at 1%.
After generation of the Tris-based buffer system, the potentially RORγ modulating ligands were diluted. […] The LANCE signal was detected by a Perkin Elmer EnVision™ Multilabel Counter. […] Ligands that promote the complex formation induce a concentration-dependent increase in time-resolved fluorescent signal.
Y is the response. Y starts at Bottom and goes to Top with a sigmoidal shape.
This is identical to the “four parameter logistic equation”. The IC50 values are calculated using this equation.

[2] = firefly (FF) luciferase, 293T cells
[3] = firefly (FF) luciferase, 293T cells, read-out: pIC50 (FF) (converted)
[4] = renilla normalised (RENnorm) luciferase, 293T cells, read-out: pIC50 (REN) (converted)
[5] = renilla normalised (RENnorm) luciferase, 293T cells

Sequence of RORγ (P51449 whole entry, looked up, the tested form may be a part): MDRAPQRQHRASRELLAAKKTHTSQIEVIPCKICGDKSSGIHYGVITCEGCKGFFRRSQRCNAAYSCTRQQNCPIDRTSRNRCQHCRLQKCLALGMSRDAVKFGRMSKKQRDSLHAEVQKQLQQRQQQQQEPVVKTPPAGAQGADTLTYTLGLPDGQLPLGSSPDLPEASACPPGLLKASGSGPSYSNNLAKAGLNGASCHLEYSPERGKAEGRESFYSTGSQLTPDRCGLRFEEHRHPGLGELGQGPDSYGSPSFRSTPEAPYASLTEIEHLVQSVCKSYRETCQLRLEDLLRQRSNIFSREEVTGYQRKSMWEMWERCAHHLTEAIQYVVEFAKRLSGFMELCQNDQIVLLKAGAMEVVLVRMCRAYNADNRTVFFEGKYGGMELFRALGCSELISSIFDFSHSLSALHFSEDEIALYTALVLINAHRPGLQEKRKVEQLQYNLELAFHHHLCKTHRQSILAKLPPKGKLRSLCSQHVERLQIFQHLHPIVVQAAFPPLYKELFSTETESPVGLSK
Sequence of RORγ ligand binding domain (LBD) (P51449 269-508): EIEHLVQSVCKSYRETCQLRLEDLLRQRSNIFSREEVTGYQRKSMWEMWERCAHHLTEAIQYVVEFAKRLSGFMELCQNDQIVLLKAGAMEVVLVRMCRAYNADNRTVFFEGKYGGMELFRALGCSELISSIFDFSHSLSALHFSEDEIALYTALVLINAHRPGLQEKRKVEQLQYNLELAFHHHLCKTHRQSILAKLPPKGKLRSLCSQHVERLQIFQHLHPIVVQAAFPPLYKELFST

| Compound | pIC50 (FF) (RORγ) | pIC50 (REN) (RORγ) | pIC50 (FRET) [1] | pIC50 (FF) (RORγ; [2]) | IC50 [1] | IC50 (RORγ; [3]) | IC50 (RORγ; [4]) | pIC50 (REN) (RORγ; [5]) |
| --- | --- | --- | --- | --- | --- | --- | --- | --- |
| CC(C)(C)NS(=O)(=O)c1ccc(-c2sc(C(=O)N3CC(C(C)(C)C(=O)O)C3)nc2CC2CCCCC2)c(Cl)c1Cl [6/37] | 6.1/6.9/6.9 | 6.1/6.9/6.9 | 6.1 | – | – | – | – | – |
| CC(C)(C)NS(=O)(=O)c1ccc(-c2oc(C(=O)N[C@H]3C[C@H](C(=O)O)C3)nc2CC2CCCCC2)c2ccccc12 [100/13] | 6.1/7.0/7.1 | 6.1/7.0/7.1 | 6.1/7.0/7.1 | – | – | – | – | – |
| CC(C)(C)c1cc(-c2sc(C(=O)N[C@H]3C[C@H](C(=O)O)C3)nc2CC2CCCCC2)cc(C(C)(C)O)c1 [Example 23, (trans)-3-(5-(3-(tert-Butyl)-5-(2-hydroxypropan-2-yl)phenyl)-4-(cyclohexylmethyl)-thiazole-2-carboxamido)cyclobutanecarboxylic acid] | – | – | – | 8.2 | 631 nM | – | – | – |
| CC(C)(C)NS(=O)(=O)c1ccc(-c2sc(C(=O)N3CC4(CC[S+]([O-])CC4)C3)nc2CC2CCCCC2)c2ccccc12 [15/9] | 6.4/7.8/7.9 | 6.4/7.8/7.9 | 6.4/7.8/7.9 | – | – | – | – | – |
| CSc1cnc(CNC(=O)c2nc(CC3CCCCC3)c(-c3ccc(S(=O)(=O)NC(C)(C)C)c(Cl)c3Cl)s2)s1 [6/40] | 7.0/8.2/8.3 | 7.0/8.2/8.3 | 7.0/8.2/8.3 | – | – | – | – | – |
| CC(C)(C)c1cc(-c2sc(C(=O)N[C@H]3C[C@H](C(=O)O)C3)nc2CC2CCCCC2)cc(C(C)(C)C)n1 [8/8] | – | – | – | – | 501 nM | 63.1 nM | 79.4 nM | – |
| CC(C)(C)c1cc(-c2sc(C(=O)NC3CC(C(=O)O)C3)nc2CC2CCCCC2)nc(C2(C)CC2)n1 (centres unmarked) [19/12] | – | – | 6.1 | 6.8 | – | – | – | 6.7 |
| CC(C)(C)NS(=O)(=O)c1ccc(-c2sc(C(=O)N3CC4(CSC4)C3)nc2CC2CCCCC2)c(Cl)c1Cl [6/32] | 6.9/8.0/8.2 | 6.9/8.0/8.2 | 6.9/8.0/8.2 | – | – | – | – | – |
| CC(C)(C)NS(=O)(=O)c1ccc(-c2sc(C(=O)NN3CCOCC3)nc2CC2CCCCC2)c(Cl)c1Cl [6/20] | 6.9/8.7/8.7 | 6.9/8.7/8.7 | 6.9 | – | – | – | – | – |
| CC(C)(C)NS(=O)(=O)c1ccc(-c2sc(C(=O)NCCN3CCOCC3)nc2CC2CCCCC2)cc1C(C)(C)O [6/25] | 5.8/6.7/6.7 | 5.8/6.7/6.7 | 5.8/6.7/6.7 | – | – | – | – | – |
| CC(C)(C)NS(=O)(=O)c1ccc(-c2sc(C(=O)NC3CCOCC3)nc2CC2CCCCC2)cc1C(C)(C)O [6/22] | 6.8/7.7/7.7 | 6.8/7.7/7.7 | 6.8/7.7/7.7 | – | – | – | – | – |
| CC(C)(C)NS(=O)(=O)c1ccc(-c2sc(C(=O)N[C@H]3C[C@H](C(=O)O)C3)nc2CC2CCCCC2)cc1C(C)(C)C [7/2] | 6.2/7.5/7.6 | 6.2/7.5/7.6 | 6.2/7.5/7.6 | – | – | – | – | – |
| CC(C)(C)NS(=O)(=O)c1ccc(-c2sc(C(=O)NC3C[S+]([O-])C3)nc2CC2CCCCC2)c(Cl)c1Cl (centres unmarked) [15/5] | 6.9/8.5/8.4 | 6.9/8.5/8.4 | 6.9/8.5/8.4 | – | – | – | – | – |
| CC(C)(C)NS(=O)(=O)c1ccc(-c2sc(C(=O)NC3CSC3)nc2CC2CCCCC2)c2ccccc12 [6/14] | 6.8/8.7/8.7 | 6.8/8.7/8.7 | 6.8/8.7/8.7 | – | – | – | – | – |
| CC(C)(O)CNC(=O)c1nc(CC2CCCCC2)c(-c2ccc(S(=O)(=O)NC(C)(C)C)c3c(F)cccc23)s1 [19/8] | 7.0/7.7/7.8 | 7.0/7.7/7.8 | 7.0/7.7/7.8 | – | – | – | – | – |
| CC(C)(C)NS(=O)(=O)c1ccc(-c2sc(C(=O)N[C@H]3C[C@H](C(=O)O)C3)nc2CC2CCCCC2)cc1C(F)(F)F [9/2] | 6.9/8.0/8.0 | 6.9/8.0/8.0 | 6.9/8.0/8.0 | – | – | – | – | – |
| CC(C)(C)NS(=O)(=O)c1ccc(-c2sc(S(N)(=O)=O)nc2CC2CCCCC2)cc1C(C)(C)C [Example 13/1] | 6.3/6.6/6.6 | 6.3/6.6/6.6 | 6.3/6.6/6.6 | – | – | – | – | – |
| CC(C)(C)c1cc(-c2sc(S(N)(=O)=O)nc2CC2CCCCC2)cc(C(C)(C)C)c1 [Example 4, 4-(Cyclohexylmethyl)-5-(3,5-di-tert-butylphenyl)thiazole-2-sulfonamide] | 6.8/6.4/6.4 | 6.8/6.4/6.4 | 6.8/6.4/6.4 | – | – | – | – | – |
| CC(C)(C)NS(=O)(=O)c1ccc(-c2sc(C(=O)NC3CS(=O)(=O)C3)nc2CC2CCCCC2)c(Cl)c1Cl [15/4] | 7.3/8.7/9.0 | 7.3/8.7/9.0 | 7.3/8.7/9.0 | – | – | – | – | – |

| Compound | pIC50 (FF) (RORγ) | pIC50 (REN) (RORγ) | pIC50 (FRET) [1] | pIC50 (FF) (RORγ; [2]) | IC50 [1] | IC50 (RORγ; [3]) | IC50 (RORγ; [4]) | pIC50 (REN) (RORγ; [5]) |
| --- | --- | --- | --- | --- | --- | --- | --- | --- |
| CC(C)(C)NS(=O)(=O)c1ccc(-c2sc(C(=O)N[C@H]3C[C@H](C(=O)O)C3)nc2CC2CCCCC2)c(F)c1C(F)F [7/15] | 6.7/8.7/8.5 | 6.7/8.7/8.5 | 6.7/8.7/8.5 | – | – | – | – | – |
| O=C(c1nc(CC2CCCCC2)c(-c2ccc(S(=O)(=O)N3CCOCC3)c3ccccc23)s1)N1CC2(CCS(=O)(=O)CC2)C1 [14/4] | 6.2/6.4/6.3 | 6.2/6.4/6.3 | 6.2/6.4/6.3 | – | – | – | – | – |
| CC(C)(C)NS(=O)(=O)c1ccc(-c2sc(C(=O)N[C@H]3C[C@H](C(=O)O)C3)nc2CC2CCCCC2)c(OC(F)F)c1Cl [21/3] | – | – | – | – | 398 nM | 10 nM | 5.01 nM | – |
| CC(C)(C)NS(=O)(=O)c1ccc(-c2oc(C(=O)NC34CCC(C(=O)NS(C)(=O)=O)(CC3)CC4)nc2CC2CCCCC2)c2ccccc12 [Example 102, 5-(4-(N-(tert-Butyl)sulfamoyl)naphthalen-1-yl)-4-(cyclohexylmethyl)-N-(4-((methylsulfonyl)carbamoyl)bicyclo[2.2.2]octan-1-yl)oxazole-2-carboxamide] | 6.0/7.3/7.4 | 6.0/7.3/7.4 | 6.0/7.3/7.4 | – | – | – | – | – |
| CC(C)(C)NS(=O)(=O)c1ccc(-c2sc(C(=O)NC34CCC(C(=O)O)(CC3)CC4)nc2CC2CCCCC2)c2ccccc12 [6/8] | 6.3/8.2/8.2 | 6.3/8.2/8.2 | 6.3/8.2/8.2 | – | – | – | – | – |
| CC(C)(O)c1ccc(-c2sc(C(=O)NC3CCS(=O)(=O)CC3)nc2CC2CCCCC2)c2ccccc12 [7/23] | <4.7/6.8/6.7 | <4.7/6.8/6.7 | – | – | > 20000 nM | – | – | – |
| CC(C)(C)NS(=O)(=O)c1ccc(-c2sc(C(=O)NC3C[S+]([O-])C3)nc2CC2CCCCC2)cc1C(C)(C)O (centres unmarked) [Example 15/1] | 6.7/8.0/8.0 | 6.7/8.0/8.0 | 6.7/8.0/8.0 | – | – | – | – | – |
| CC(C)(C)NS(=O)(=O)c1ccc(-c2sc(C(=O)N3CC4(CCS(=O)(=O)CC4)C3)nc2CC2CCCCC2)c(Cl)c1Cl [6/45] | 7.1/7.9/8.0 | 7.1/7.9/8.0 | 7.1/7.9/8.0 | – | – | – | – | – |
| CC(C)(C)c1cc(-c2sc(C(=O)N[C@H]3C[C@H](C(=O)O)C3)nc2CC2CCCCC2)cc(C(C)(F)F)c1 [7/18] | 6.4/7.4/7.4 | 6.4/7.4/7.4 | 6.4/7.4/7.4 | – | – | – | – | – |
| CC(C)(O)CNC(=O)c1nc(CC2CCC2)c(-c2ccc(S(=O)(=O)NC(C)(C)C)c3ccccc23)s1 [21/2] | 6.8/8.4/8.5 | 6.8/8.4/8.5 | 6.8/8.4/8.5 | – | – | – | – | – |
| CC(C)(C)NS(=O)(=O)c1ccc(-c2sc(C(=O)NC3CCC3)[n+]([O-])c2CC2CCCCC2)c2ccccc12 [Example 22/1] | – | – | 6.4 | 7.5 | – | – | – | 7.5 |
| CC(C)(C)NS(=O)(=O)c1ccc(-c2sc(C(=O)N[C@H]3C[C@@H](S(C)(=O)=O)C3)nc2CC2CCCCC2)c(Cl)c1Cl [6/42] | 7.2/8.2/8.4 | 7.2/8.2/8.4 | 7.2/8.2/8.4 | – | – | – | – | – |
| N#CC1(NS(=O)(=O)c2ccc(-c3sc(C(=O)N4CC5(CCS(=O)(=O)CC5)C4)nc3CC3CCCCC3)c3ccccc23)CC1 [Example 14, N-(1-Cyanocyclopropyl)-4-(4-(cyclohexylmethyl)-2-(7,7-dioxido-7-thia-2-azaspiro[3.5]nonane-2-carbonyl)thiazol-5-yl)naphthalene-1-sulfonamide] | 6.7/7.6/7.7 | 6.7/7.6/7.7 | 6.7/7.6/7.7 | – | – | – | – | – |
| COC(c1nc(C(=O)N[C@H]2C[C@H](C(=O)O)C2)sc1-c1cc(C(C)(C)C)cc(C2(C)CC2)c1)C1CCCCC1 (some centres unmarked) [19/2] | 6.1/7.0/7.0 | 6.1/7.0/7.0 | 6.1/7.0/7.0 | – | – | – | – | – |
| CC(C)(C)NS(=O)(=O)c1ccc(-c2sc(C(=O)NCc3ncc(S(C)(=O)=O)s3)nc2CC2CCCCC2)c(Cl)c1Cl [15/7] | 7.2/8.3/8.4 | 7.2/8.3/8.4 | 7.2/8.3/8.4 | – | – | – | – | – |
| CC(C)(O)CNC(=O)c1nc(CC2CCCCC2)c(-c2ccc(S(=O)(=O)NC(C)(C)C)c(Cl)c2Cl)o1 [100/15] | 6.4/7.4/7.5 | 6.4/7.4/7.5 | 6.4/7.4/7.5 | – | – | – | – | – |
| CC(C)(C)c1cc(-c2sc(C(=O)N[C@H]3C[C@H](C(=O)O)C3)[n+]([O-])c2CC2CCCCC2)cc(C(C)(C)C)n1 [Example 22, 2-(((trans)-3-Carboxycyclobutyl)carbamoyl)-4-(cyclohexylmethyl)-5-(2,6-di-tert-butylpyridin-4-yl)thiazole 3-oxide] | – | – | – | 7.1 | 398 nM | – | – | 7.1 |
| COC(c1nc(C(=O)NC2CCOCC2)sc1-c1ccc(S(=O)(=O)NC(C)(C)C)c(C(C)(C)C)c1)C1CCCCC1 (centres unmarked) [Example 19/1] | 6.1/6.7/6.7 | 6.1/6.7/6.7 | 6.1/6.7/6.7 | – | – | – | – | – |
